From ChEMBL document CHEMBL1131212, “Synthesis and adrenergic activity of a new series of N-aryl dicyclopropyl ketone oxime ethers: SAR and stereochemical aspects” (J Med Chem, 1998)

How the values were obtained:
[1] = target: T1, Adrenergic receptor alpha-1 (Rattus norvegicus, UniProt P15823+P23944+P43140); test: Inhibition of alpha-1 adrenergic receptor isolated from rat ventricle homogenates
T1 sequence (P15823 whole entry): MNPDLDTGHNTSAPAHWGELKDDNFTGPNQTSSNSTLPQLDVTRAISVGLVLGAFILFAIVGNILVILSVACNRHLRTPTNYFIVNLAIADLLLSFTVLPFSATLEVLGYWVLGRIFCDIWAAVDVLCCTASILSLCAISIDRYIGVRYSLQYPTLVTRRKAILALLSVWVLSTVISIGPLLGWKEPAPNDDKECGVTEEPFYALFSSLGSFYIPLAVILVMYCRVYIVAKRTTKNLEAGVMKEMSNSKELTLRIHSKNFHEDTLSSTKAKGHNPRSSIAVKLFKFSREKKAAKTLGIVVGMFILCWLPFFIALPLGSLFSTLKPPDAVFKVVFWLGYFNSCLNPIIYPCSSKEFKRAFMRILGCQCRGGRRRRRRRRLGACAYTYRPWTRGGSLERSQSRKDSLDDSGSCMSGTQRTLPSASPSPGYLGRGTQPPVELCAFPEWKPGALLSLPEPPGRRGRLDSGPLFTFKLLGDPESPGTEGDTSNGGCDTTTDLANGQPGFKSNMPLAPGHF
T1 sequence (P23944 whole entry): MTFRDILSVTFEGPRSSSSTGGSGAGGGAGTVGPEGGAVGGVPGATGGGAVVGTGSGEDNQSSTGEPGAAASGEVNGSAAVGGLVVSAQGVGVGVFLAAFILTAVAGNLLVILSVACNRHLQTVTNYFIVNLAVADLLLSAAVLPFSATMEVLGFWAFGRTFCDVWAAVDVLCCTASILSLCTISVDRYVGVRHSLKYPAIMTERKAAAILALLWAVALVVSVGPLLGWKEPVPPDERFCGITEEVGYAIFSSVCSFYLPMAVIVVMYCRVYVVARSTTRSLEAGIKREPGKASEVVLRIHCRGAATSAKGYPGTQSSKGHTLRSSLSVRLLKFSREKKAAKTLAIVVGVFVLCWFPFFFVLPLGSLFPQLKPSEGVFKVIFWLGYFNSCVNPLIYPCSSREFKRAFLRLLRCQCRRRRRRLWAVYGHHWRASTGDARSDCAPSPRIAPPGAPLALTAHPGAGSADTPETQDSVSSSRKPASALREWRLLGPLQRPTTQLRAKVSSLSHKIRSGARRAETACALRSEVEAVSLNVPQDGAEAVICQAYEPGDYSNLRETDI
T1 sequence (P43140 whole entry): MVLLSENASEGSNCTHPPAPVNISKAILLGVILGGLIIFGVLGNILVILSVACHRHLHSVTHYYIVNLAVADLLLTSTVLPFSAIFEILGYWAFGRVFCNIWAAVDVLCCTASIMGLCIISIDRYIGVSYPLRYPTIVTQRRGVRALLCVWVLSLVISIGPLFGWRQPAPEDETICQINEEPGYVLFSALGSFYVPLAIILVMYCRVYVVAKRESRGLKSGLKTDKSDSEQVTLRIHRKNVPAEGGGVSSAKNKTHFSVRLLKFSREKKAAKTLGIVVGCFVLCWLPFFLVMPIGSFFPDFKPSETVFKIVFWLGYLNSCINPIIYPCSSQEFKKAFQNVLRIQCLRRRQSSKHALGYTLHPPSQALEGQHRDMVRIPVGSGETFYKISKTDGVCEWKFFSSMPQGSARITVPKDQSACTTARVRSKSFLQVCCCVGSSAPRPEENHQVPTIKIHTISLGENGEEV

Cavia porcellus [2] = species: Cavia porcellus; test: Chronotropic effect studied in right atria isolated from guinea pig and is expressed in pA2.; conditions: read-out: pA2 (converted)
Adrenergic receptor beta [3] = target: T2, Adrenergic receptor beta (Rattus norvegicus, UniProt P18090+P10608+P26255); test: Inhibition of beta adrenergic receptor isolated from rat ventricle homogenates.
Cavia porcellus [4] = species: Cavia porcellus; test: Ionotropic effect in electrically driven left atrial preparation (Atria isolated from guinea pig) and is expressed in pA2.; conditions: Cardiac atrium, read-out: pA2 (converted)
[5] = target: T3, Adrenergic receptor beta (Rattus norvegicus) (UniProt P18090+P10608+P26255)
Rattus norvegicus [6] = test: Tested for MED (smallest dose giving maximum effect) evaluated by dose-response curve, from 0.1 to 5 mg/kg in 5-10 animals on iv administration.; format: functional; conditions: dose mg/kg 0.1-5
Rattus norvegicus [7] = species: Rattus norvegicus; test: The compound was tested for percent increase in heart rate with respect to that measured after isoprenaline in 5-10 animals.; format: functional
Rattus norvegicus [8] = species: Rattus norvegicus; test: The compound was tested for percent increase in heart rate with respect to that measured after isoprenaline in 5-10 animals and showing significant increase (p <= 0.05) with respect to baseline values (293 +/- 7 to 310 +/- 5 […]).; format: functional
Adrenergic receptor beta [9] = target: T2, Adrenergic receptor beta; test: The compound was tested for the concentration to inhibit 50% of Beta adrenergic receptor isolated from rat ventricle homogenates.; format: functional
[10] = target: Beta-1 adrenergic receptor (Cavia porcellus); test: Beta-1 adrenergic receptor-Antagonism in isolated guinea pig atria. ( for R-enantiomer); conditions: read-out: pA2 app (converted)
Adrenergic receptor beta [11] = target: T2, Adrenergic receptor beta; test: The compound was tested for the concentration to inhibit 50% of Beta adrenergic receptor isolated from rat ventricle homogenates; ND=not determined
[12] = target: T3, Adrenergic receptor beta (Rattus norvegicus); test: In vitro inhibitory specificity for Beta adrenergic receptor was evaluated; ND=not determined; format: protein assay

IC50 [1] [nM]	IC50 (Adrenergic receptor beta [3]) [nM]	Specificity [5]	IC50 (Adrenergic receptor beta [9]) [nM]	Kb [10] [nM]	IC50 (Adrenergic receptor beta [11]) [nM]	Specificity [12]	Compound	Kb (Cavia porcellus [2]) [nM]	Kb (Cavia porcellus [4]) [nM]	MED (Rattus norvegicus [6]) [µmol/kg]	Increase (Rattus norvegicus [7]) [%]	Increase (Rattus norvegicus [8]) [%]
22000	13	1690	–	–	–	–	Cc1ccccc1NCC(O)CON=C(C1CC1)C1CC1 (stereo not drawn)	126	251	5.3	–	37
> 100000	13.8	> 7250	–	–	–	–	OC(CNc1ccc(C(F)(F)F)cc1)CON=C(C1CC1)C1CC1 (stereo not drawn)	63.1	126	2.2	–	47
> 100000	630	> 160	–	–	–	–	OC(CNc1cccc(I)c1)CON=C(C1CC1)C1CC1 (stereo not drawn)	5010	3160	7.8	–	42
19000	4.1	4630	–	–	–	–	OC(CNc1ccc(Br)cc1)CON=C(C1CC1)C1CC1 (stereo not drawn)	20	100	2.1	10	–
30700	7	4390	–	–	–	–	CCCCc1ccc(NCC(O)CON=C(C2CC2)C2CC2)cc1 (stereo not drawn)	79.4	251	2.7	10	–
19000	7.9	2400	–	–	–	–	O=[N+]([O-])c1ccc(NCC(O)CON=C(C2CC2)C2CC2)cc1 (stereo not drawn)	100	251	1.8	10	–
12600	–	3700	3.4	–	–	–	CC(C)(Cc1ccc(NCC(O)CON=C(C2CC2)C2CC2)cc1)[N+](=O)[O-] (stereo not drawn)	20	79.4	2.4	10	–
37300	10	3570	–	–	–	–	O=C(O)c1ccc(NCC(O)CON=C(C2CC2)C2CC2)cc1 (stereo not drawn)	100	631	2.3	–	65
15000	7.6	1970	–	12.6	–	–	Cc1ccc(NCC(O)CON=C(C2CC2)C2CC2)cc1 (stereo not drawn)	12.6	10	2.5	–	64
> 100000	501	> 200	–	–	–	–	Cc1cccc(NCC(O)CON=C(C2CC2)C2CC2)c1 (stereo not drawn)	100	126	9.2	–	42
18700	11.4	1640	–	–	–	–	OC(CNc1ccc(Cl)cc1)CON=C(C1CC1)C1CC1 (stereo not drawn)	39.8	126	2.1	–	47
28300	–	–	–	–	10.4	2730	Oc1ccc(NCC(O)CON=C(C2CC2)C2CC2)cc1 (stereo not drawn)	79.4	200	3.1	10	–
27500	4.1	6700	–	–	–	–	OC(CNc1ccc(I)cc1)CON=C(C1CC1)C1CC1 (stereo not drawn)	15.8	63.1	1.6	–	64
70800	3.4	20800	–	11	–	–	CC(C)(C)c1ccc(NCC(O)CON=C(C2CC2)C2CC2)cc1 (stereo not drawn)	12.6	50.1	2	–	44
26200	12.4	2120	–	–	–	–	OC(CNc1ccc(F)cc1)CON=C(C1CC1)C1CC1 (stereo not drawn)	631	1260	2.4	–	74
95100	12.8	7430	–	–	–	–	CCOC(=O)c1ccc(NCC(O)CON=C(C2CC2)C2CC2)cc1 (stereo not drawn)	79.4	251	2.4	10	–

The remaining lines, values behind:

Compound	IC50 [1] [nM]	IC50 (Adrenergic receptor beta [3]) [nM]	Specificity [5]	IC50 (Adrenergic receptor beta [9]) [nM]	Kb [10] [nM]	IC50 (Adrenergic receptor beta [11]) [nM]	Specificity [12]	Kb (Cavia porcellus [2]) [nM]	Kb (Cavia porcellus [4]) [nM]	MED (Rattus norvegicus [6]) [µmol/kg]	Increase (Rattus norvegicus [7]) [%]	Increase (Rattus norvegicus [8]) [%]
OC(CNc1ccccc1I)CON=C(C1CC1)C1CC1 (stereo not drawn)	53000	108	490	–	–	–	–	1260	2510	5.7	10	–
Cc1ccnc(NCC(O)CON=C(C2CC2)C2CC2)c1 (stereo not drawn)	15300	23.9	640	–	–	–	–	31.6	79.4	2.6	0	–
OC(CNc1ccccn1)CON=C(C1CC1)C1CC1 (stereo not drawn)	36400	35.6	1020	–	–	–	–	79.4	63.1	4.4	0	–
CC(C)(N)Cc1ccc(NCC(O)CON=C(C2CC2)C2CC2)cc1 (stereo not drawn)	–	–	–	–	–	–	–	501	–	–	–	–
Cc1cccc(NCC(O)CON=C(C2CC2)C2CC2)n1 (stereo not drawn)	–	–	–	–	–	–	–	10000	–	–	–	–
OC(CNc1ccc(-c2ccccc2)cc1)CON=C(C1CC1)C1CC1 (stereo not drawn)	3100	4.5	690	–	–	–	–	10	39.8	1	–	70
OC(CNc1ccncc1)CON=C(C1CC1)C1CC1 (stereo not drawn)	72300	32.3	2240	–	–	–	–	63.1	251	3.7	0	–
CC(C)NCC(O)COc1cccc2ccccc12 (stereo not drawn) [PROPRANOLOL]	–	–	–	–	–	–	–	–	–	3	0	–
OC(CNc1nc2ccccc2s1)CON=C(C1CC1)C1CC1 (stereo not drawn)	> 100000	3.4	> 29400	–	–	–	–	15.8	25.1	4.1	10	–
OC(CNc1nc2ccccc2[nH]1)CON=C(C1CC1)C1CC1 (stereo not drawn)	> 100000	13.2	> 7580	–	–	–	–	63.1	100	2	10	–
CN(CC(O)CON=C(C1CC1)C1CC1)c1ccccc1 (stereo not drawn)	–	–	–	–	–	–	–	794000	–	–	–	–
OC(CNc1ccccc1)CON=C(C1CC1)C1CC1 (stereo not drawn)	13000	3.3	3940	–	–	–	–	39.8	126	2.7	10	–
OC(CNc1ccccc1-c1ccccc1)CON=C(C1CC1)C1CC1 (stereo not drawn)	> 100000	998	> 100	–	–	–	–	100000	25100	> 12.9	0	–
Cc1ccc(NCC(O)CON=C(C2CC2)C2CC2)nc1 (stereo not drawn)	–	–	–	–	–	–	–	25100	–	–	–	–
